Assay results from US8993574B2, “Pyrrole antifungal agents” (F2G Ltd, priority 2008, dated 2015).
Values after ≈ are worked out from the molar mass of the structure shown.

Key:
Assay type in all cases: cell-based
Candida krusei = assay: MIC, RPMI medium; conditions: 24-48 h at 35° C., >80% growth inhibition, banded into grades; for MIC: Pichia kudriavzevii
Procedure, shortened: (§1)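 MIC taken as lowest drug level inhibiting growth by >80% relative to drug-free wells, read as OD at 485 nm after 24-48 h at 35° C. Organisms at 1−2×10^4 cfu/mL in RPMI (2% glucose, 0.135 M MOPS, pH 7.0) exposed to doubling dilutions spanning 50-0.05 mg/L.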

Candida albicans = assay: MIC, RPMI medium; conditions: 24-48 h at 35° C., >80% growth inhibition, banded into grades; for MIC: Candida albicans
Procedure, shortened: as §1

Candida parapsilosis = assay: MIC, RPMI medium; conditions: 24-48 h at 35° C., >80% growth inhibition, banded into grades; for MIC: Lodderomyces parapsilosis
Procedure, shortened: as §1

Candida glabrata = assay: MIC, RPMI medium; conditions: 24-48 h at 35° C., >80% growth inhibition, banded into grades; for MIC: Nakaseomyces glabratus
Procedure, shortened: as §1

Aspergillus terreus AT49 [1] = assay: MIC, RPMI medium; conditions: for MIC: Aspergillus terreus, AT49, MIC banded into grades, read-out: MIC grade, A. terreus 49
Procedure, shortened: as §1

[2] = test system: Aspergillus fumigatus AF293; assay: MIC, RPMI medium; conditions: for MIC: Aspergillus fumigatus, AF293, MIC banded into grades, read-out: MIC grade, A. fumigatus
Procedure, shortened: as §1

Aspergillus niger [3] = assay: MIC, RPMI medium; conditions: MIC banded into grades; for MIC: Aspergillus niger, read-out: MIC grade, A. niger
Procedure, shortened: as §1

[4] = test system: Aspergillus fumigatus AF210; assay: MIC, RPMI medium; conditions: for MIC: Aspergillus fumigatus, AF210, MIC banded into grades, read-out: MIC grade, A. fumigatus 210
Procedure, shortened: as §1

Candida tropicalis = assay: MIC, RPMI medium; conditions: 24-48 h at 35° C., >80% growth inhibition, banded into grades; for MIC: Candida tropicalis
Procedure, shortened: as §1

Aspergillus terreus AT4 [5] = assay: MIC, RPMI medium; conditions: for MIC: Aspergillus terreus, AT4, MIC banded into grades, read-out: MIC grade, A. terreus
Procedure, shortened: as §1

Aspergillus flavus [6] = assay: MIC, RPMI medium; conditions: MIC banded into grades; for MIC: Aspergillus flavus, read-out: MIC grade, A. flavus
Procedure, shortened: as §1

Aspergillus terreus AT49 [7] = assay: MIC, YAG medium; conditions: 24 h at 35° C, MIC banded into grades; for MIC: Aspergillus terreus, read-out: MIC grade, A. terreus 49
Procedure, shortened: (§2)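 Spores from 5-day Sabouraud agar cultures were suspended in YAG medium (1% glucose, 1% ammonium chloride, 0.5% yeast extract) at final inocula of 1−2×10^4 cfu/mL against doubling dilutions of compound (50-0.05 mg/L; 0.5-0.0005 mg/L on repeat). Plates were incubated 24 h at 35° C. MIC was the lowest concentration giving >70% growth inhibition by OD485 versus drug-free control.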

[8] = test system: Aspergillus fumigatus AF293; assay: MIC, YAG medium; conditions: 24 h at 35° C, MIC banded into grades; for MIC: Aspergillus fumigatus, read-out: MIC grade, A. fumigatus
Procedure, shortened: as §2

Aspergillus niger [9] = assay: MIC, YAG medium; conditions: 24 h at 35° C, MIC banded into grades; for MIC: Aspergillus niger, read-out: MIC grade, A. niger
Procedure, shortened: as §2

[10] = test system: Aspergillus fumigatus AF210; assay: MIC, YAG medium; conditions: 24 h at 35° C, MIC banded into grades; for MIC: Aspergillus fumigatus, read-out: MIC grade, A. fumigatus 210
Procedure, shortened: as §2

Aspergillus terreus AT4 [11] = assay: MIC, YAG medium; conditions: 24 h at 35° C, MIC banded into grades; for MIC: Aspergillus terreus, read-out: MIC grade, A. terreus
Procedure, shortened: as §2

Aspergillus flavus [12] = assay: MIC, YAG medium; conditions: 24 h at 35° C, MIC banded into grades; for MIC: Aspergillus flavus, 24 h, read-out: MIC grade, A. flavus
Procedure, shortened: as §2

| SMILES | MIC (Candida krusei) | MIC (Candida albicans) | MIC (Candida parapsilosis) | MIC (Candida glabrata) | MIC (Aspergillus terreus AT49 [1]) | MIC [2] | MIC (Aspergillus niger [3]) | MIC [4] | MIC (Candida tropicalis) | MIC (Aspergillus terreus AT4 [5]) | MIC (Aspergillus flavus [6]) | MIC (Aspergillus terreus AT49 [7]) | MIC [8] | MIC (Aspergillus niger [9]) | MIC [10] | MIC (Aspergillus terreus AT4 [11]) | MIC (Aspergillus flavus [12]) | other results |
| --- | --- | --- | --- | --- | --- | --- | --- | --- | --- | --- | --- | --- | --- | --- | --- | --- | --- | --- |
| COCCn1ccc(C2CCC2)c1C(=O)C(=O)Nc1ccc(N2CCN(c3cc(C)cc(C)n3)CC2)cc1 [Example 104, 2-[3-Cyclobutyl-1-(2-methoxy-ethyl)-1H-pyrrol-2-yl]-N-{4-[4-(4,6-dimethyl-pyridin-2-yl)-piperizin-1-yl]-phenyl}-2-oxo-acetamide] |  |  |  |  |  |  |  |  |  |  |  |  |  |  |  |  |  | Candida MIC, C. krusei (Candida krusei): 2 (A grade of 2 represents an MIC of from 1 to 10 mg/L); Candida MIC, C. albicans (Candida albicans): 2 (A grade of 2 represents an MIC of from 1 to 10 mg/L); Candida MIC, C. parapsilosis (Candida parapsilosis): 3 (A grade of 3 represents an MIC of less than 1 mg/L); Candida MIC, C. glabrata (Candida glabrata): 3 (A grade of 3 represents an MIC of less than 1 mg/L); MIC grade, A. terreus 49 (Aspergillus terreus AT49 [1]; MIC banded into grades): 1 (a grade of 1 represents an MIC of greater than 10 mg/L); MIC grade, A. fumigatus ([2]; MIC banded into grades): 1 (a grade of 1 represents an MIC of greater than 10 mg/L); MIC grade, A. niger (Aspergillus niger [3]): 1 (a grade of 1 represents an MIC of greater than 10 mg/L); MIC grade, A. fumigatus 210 ([4]; MIC banded into grades): 1 (a grade of 1 represents an MIC of greater than 10 mg/L); Candida MIC, C. tropicalis (Candida tropicalis): 3 (A grade of 3 represents an MIC of less than 1 mg/L); MIC grade, A. terreus (Aspergillus terreus AT4 [5]; MIC banded into grades): 1 (a grade of 1 represents an MIC of greater than 10 mg/L); MIC grade, A. flavus (Aspergillus flavus [6]): 1 (a grade of 1 represents an MIC of greater than 10 mg/L); MIC grade, A. terreus 49 (Aspergillus terreus AT49 [7]): 2 (A grade of 2 represents an MIC of from 1 to 10 mg/L); MIC grade, A. fumigatus [8]: 2 (A grade of 2 represents an MIC of from 1 to 10 mg/L); MIC grade, A. niger (Aspergillus niger [9]): 1 (a grade of 1 represents an MIC of greater than 10 mg/L); MIC grade, A. fumigatus 210 [10]: 2 (A grade of 2 represents an MIC of from 1 to 10 mg/L); MIC grade, A. terreus (Aspergillus terreus AT4 [11]): 2 (A grade of 2 represents an MIC of from 1 to 10 mg/L); MIC grade, A. flavus (Aspergillus flavus [12]): 1 (a grade of 1 represents an MIC of greater than 10 mg/L) |
| COCCn1ccc(-c2ccsc2)c1C(=O)C(=O)Nc1ccc(N2CCN(c3cc(C)cc(C)n3)CC2)cc1 [Example 72, N-{4-[4-(4,6-Dimethyl-pyridin-2-yl)-piperazin-1-yl]-phenyl}-2-[1-(2-methoxy-ethyl)-3-thiophen-3-yl-1H-pyrrol-2-yl]-2-oxo-acetamide] | 1 to 10 µg/mL (≈ 1.84 to 18.4 µM) | < 1 µg/mL | < 1 µg/mL | < 1 µg/mL | 1 to 10 µg/mL (≈ 1.84 to 18.4 µM) | 1 to 10 µg/mL (≈ 1.84 to 18.4 µM) | 1 to 10 µg/mL (≈ 1.84 to 18.4 µM) | 1 to 10 µg/mL (≈ 1.84 to 18.4 µM) | < 1 µg/mL | 1 to 10 µg/mL (≈ 1.84 to 18.4 µM) | 1 to 10 µg/mL (≈ 1.84 to 18.4 µM) | < 1 µg/mL | < 1 µg/mL | < 1 µg/mL | < 1 µg/mL | < 1 µg/mL | 1 to 10 µg/mL (≈ 1.84 to 18.4 µM) |  |
| COCCn1ccc(-c2cccc(Cl)c2)c1C(=O)C(=O)Nc1ccc(N2CCN(c3cc(C)cc(C)n3)CC2)cc1 [Example 70, 2-[3-(3-Chloro-phenyl)-1-(2-methoxy-ethyl)-1H-pyrrol-2-yl]-N-{4-[4-(4,6-dimethyl-pyridin-2-yl)-piperazin-1-yl]-phenyl}-2-oxo-acetamide] | 1 to 10 µg/mL (≈ 1.75 to 17.5 µM) | 1 to 10 µg/mL (≈ 1.75 to 17.5 µM) | < 1 µg/mL | < 1 µg/mL | 1 to 10 µg/mL (≈ 1.75 to 17.5 µM) | 1 to 10 µg/mL (≈ 1.75 to 17.5 µM) | > 10 µg/mL | 1 to 10 µg/mL (≈ 1.75 to 17.5 µM) | 1 to 10 µg/mL (≈ 1.75 to 17.5 µM) | 1 to 10 µg/mL (≈ 1.75 to 17.5 µM) | 1 to 10 µg/mL (≈ 1.75 to 17.5 µM) | < 1 µg/mL | < 1 µg/mL | > 10 µg/mL | < 1 µg/mL | < 1 µg/mL | 1 to 10 µg/mL (≈ 1.75 to 17.5 µM) |  |
| COCCn1ccc(-c2ccccc2)c1C(=O)C(=O)Nc1ccc(N2CCN(c3cc(C)cc(C)n3)CC2)cc1 [Example 47, N-{4-[4-(4,6-Dimethyl-pyridin-2-yl)-piperazin-1-yl]-phenyl}-2-[1-(2-methoxy-ethyl)-3-phenyl-1H-pyrrol-2-yl]-2-oxo-acetamide] | 1 to 10 µg/mL (≈ 1.86 to 18.6 µM) | 1 to 10 µg/mL (≈ 1.86 to 18.6 µM) | 1 to 10 µg/mL (≈ 1.86 to 18.6 µM) | < 1 µg/mL | 1 to 10 µg/mL (≈ 1.86 to 18.6 µM) | 1 to 10 µg/mL (≈ 1.86 to 18.6 µM) | 1 to 10 µg/mL (≈ 1.86 to 18.6 µM) | 1 to 10 µg/mL (≈ 1.86 to 18.6 µM) | 1 to 10 µg/mL (≈ 1.86 to 18.6 µM) | 1 to 10 µg/mL (≈ 1.86 to 18.6 µM) | 1 to 10 µg/mL (≈ 1.86 to 18.6 µM) | < 1 µg/mL | < 1 µg/mL | 1 to 10 µg/mL (≈ 1.86 to 18.6 µM) | < 1 µg/mL | 1 to 10 µg/mL (≈ 1.86 to 18.6 µM) | < 1 µg/mL |  |

Now from value to compound, other results behind:

| MIC (Candida krusei) | MIC (Candida albicans) | MIC (Candida parapsilosis) | MIC (Candida glabrata) | MIC (Aspergillus terreus AT49 [1]) | MIC [2] | MIC (Aspergillus niger [3]) | MIC [4] | MIC (Candida tropicalis) | MIC (Aspergillus terreus AT4 [5]) | MIC (Aspergillus flavus [6]) | MIC (Aspergillus terreus AT49 [7]) | MIC [8] | MIC (Aspergillus niger [9]) | MIC [10] | MIC (Aspergillus terreus AT4 [11]) | MIC (Aspergillus flavus [12]) | SMILES | other results |
| --- | --- | --- | --- | --- | --- | --- | --- | --- | --- | --- | --- | --- | --- | --- | --- | --- | --- | --- |
| 1 to 10 µg/mL (≈ 1.82 to 18.2 µM) | 1 to 10 µg/mL (≈ 1.82 to 18.2 µM) | 1 to 10 µg/mL (≈ 1.82 to 18.2 µM) | 1 to 10 µg/mL (≈ 1.82 to 18.2 µM) | 1 to 10 µg/mL (≈ 1.82 to 18.2 µM) | > 10 µg/mL | 1 to 10 µg/mL (≈ 1.82 to 18.2 µM) | > 10 µg/mL | 1 to 10 µg/mL (≈ 1.82 to 18.2 µM) | 1 to 10 µg/mL (≈ 1.82 to 18.2 µM) | > 10 µg/mL | > 10 µg/mL | > 10 µg/mL | 1 to 10 µg/mL (≈ 1.82 to 18.2 µM) | > 10 µg/mL | > 10 µg/mL | > 10 µg/mL | Cc1cc(C)nc(N2CCN(c3ccc(NC(=O)C(=O)c4cc(-c5ccccc5)cn4CCN(C)C)cc3)CC2)c1 [Example 85, 2-[1-(2-Dimethylamino-ethyl)-4-phenyl-1H-pyrrol-2-yl]-N-{4-[4-(4,6-dimethyl-pyridin-2-yl)-piperazin-1-yl]-phenyl}-2-oxo-acetamide] |  |
| < 1 µg/mL | < 1 µg/mL | < 1 µg/mL | < 1 µg/mL | > 10 µg/mL | > 10 µg/mL | > 10 µg/mL | > 10 µg/mL | < 1 µg/mL | > 10 µg/mL | > 10 µg/mL | > 10 µg/mL | > 10 µg/mL | > 10 µg/mL | > 10 µg/mL | > 10 µg/mL | > 10 µg/mL | Cc1cc(C)nc(N2CCN(c3ccc(NC(=O)C(=O)c4c(-c5ccccc5)ccn4CCN(C)C)cc3)CC2)c1 [Example 84, 2-[1-(2-Dimethylamino-ethyl)-3-phenyl-1H-pyrrol-2-yl]-N-{4-[4-(4,6-dimethyl-pyridin-2-yl)-piperazin-1-yl]-phenyl}-2-oxo-acetamide] |  |
| < 1 µg/mL | 1 to 10 µg/mL (≈ 1.91 to 19.1 µM) | < 1 µg/mL | < 1 µg/mL | < 1 µg/mL | < 1 µg/mL | < 1 µg/mL | < 1 µg/mL | < 1 µg/mL | < 1 µg/mL | < 1 µg/mL | < 1 µg/mL | < 1 µg/mL | 1 to 10 µg/mL (≈ 1.91 to 19.1 µM) | < 1 µg/mL | < 1 µg/mL | < 1 µg/mL | COCn1ccc(-c2ccccc2)c1C(=O)C(=O)Nc1ccc(N2CCN(c3cc(C)cc(C)n3)CC2)cc1 [Example 63, N-{4-[4-(4,6-Dimethyl-pyridin-2-yl)-piperazin-1-yl]-phenyl}-2-(1-methoxymethyl-3-phenyl-1H-pyrrol-2-yl)-2-oxo-acetamide] |  |
